Laboratory results from publication PMC8175350, “Drug repurposing screens identify chemical entities for the development of COVID-19 interventions” (Nature Communications, 2021).
Where a name gives a salt, the structure may show the parent alone. Read-outs that look alike come from different tables or passages of the source.

Tests used:
[1] = system: HeLa-ACE2 cells; assay: cells; conditions: Homo sapiens; for Emax: HeLa-ACE2, 24 h, read-out: HeLa-ACE2 cell count Sinf Average
[2] = in vitro; conditions: human
[3] = system: Calu-3 cells
[4] = system: SARS-CoV-2; assay: microbe, parasite or virus in culture; type: cell-based; conditions: for Emax: Severe acute respiratory syndrome coronavirus 2, HeLa-ACE2, 24 h, read-out: HeLa-ACE2 CoV-2 Sinf Average; for HeLa-ACE2 SI: selectivity index, uninfected HeLa-ACE2 CC50 / SARS-CoV-2 EC50
[5] = Uninfected HeLa-ACE2 24 h live/dead cytotoxicity counter screen; type: cell-based, human; conditions: human, uninfected HeLa-ACE2 cells
[6] = system: HeLa-ACE2 cells; assay: as above; type: cell-based, human; conditions: for CC50: read-out: HeLa-ACE2 uninfected cytotoxicity CC50 GeoMean
[7] = system: SARS-CoV-2; assay: microbe, parasite or virus in culture; type: cell-based; conditions: for Emax: Severe acute respiratory syndrome coronavirus 2, Calu-3, 48 h; for Calu-3 SI: selectivity index, uninfected Calu-3 CC50 / SARS-CoV-2 EC50
[8] = system: HeLa-ACE2 cells; conditions: Sinf average of the curves
[9] = system: Calu-3 cells; assay: cells; conditions: Homo sapiens; for Emax: Calu-3, 48 h
[10] = system: SARS-CoV-2; assay: microbe, parasite or virus in culture; type: cell-based; conditions: for EC50: read-out: HeLa-ACE2 TOA CoV-2 EC50 GeoMean; for Emax: Severe acute respiratory syndrome coronavirus 2, HeLa-ACE2, 10 h, read-out: HeLa-ACE2 TOA CoV-2 Sinf Average
[11] = system: HEK293T; conditions: human, 72 h
[12] = system: SARS-CoV-2; type: cell-based; conditions: for Synergy score with remdesivir (δ): HeLa-ACE2
[13] = system: Calu-3 cells; conditions: for EC50: read-out: Calu-3 cell count EC50 GeoMean
[14] = system: HepG2; conditions: human, 72 h
[15] = system: HeLa-ACE2 cells; assay: Total cell count in the HeLa-ACE2 TOA assay; type: cell-based; conditions: Homo sapiens, HeLa-ACE2, read-out: HeLa-ACE2 TOA cell count EC50 GeoMean
Source text: Supplement 41467_2021_23328_MOESM3_ESM.xlsx, sheet "Table S1" | column: HeLa-ACE2 TOA cell count

[16] = Uninfected Calu-3 48 h Cell-Titer Glo cytotoxicity counter screen; conditions: human, uninfected Calu-3 cells
[17] = system: Calu-3 cells; assay: as above
[18] = HEK293T 72 h CellTiter-Glo cytotoxicity; conditions: human, HEK293T cells
[19] = system: HEK293T; assay: HEK293T 72 h CellTiter-Glo cytotoxicity; conditions: 72 h
[20] = HepG2 72 h CellTiter-Glo cytotoxicity; conditions: human, HepG2 cells
[21] = system: HepG2; assay: HepG2 72 h CellTiter-Glo cytotoxicity; conditions: 72 h
[22] = cited from earlier work
[23] = system: HeLa-ACE2 cells; assay: Total cell count in the HeLa-ACE2 TOA (time of addition) assay; type: cell-based, human; conditions: Homo sapiens, HeLa-ACE2; read-out: HeLa-ACE2 TOA cell count EC50 GeoMean
[24] = curve plateau at infinite concentration
[25] = HeLa-ACE2, read-out: HeLa-ACE2 cell count EC50 GeoMean
[26] = Severe acute respiratory syndrome coronavirus 2, HeLa-ACE2
[27] = Severe acute respiratory syndrome coronavirus 2, HeLa-ACE2, detail column, read-out: HeLa-ACE2 CoV-2 EC50 GeoMean
[28] = Severe acute respiratory syndrome coronavirus 2, HeLa-ACE2, reconfirmed hits, read-out: HeLa-ACE2 SARS-CoV-2 EC50
[29] = reconfirmed hits, read-out: HeLa-ACE2 Uninf. cells CC50
[30] = read-out: HeLa-ACE2 uninfected cytotoxicity CC50 GeoMean
[31] = human, uninfected HeLa-ACE2 cells, 24 h
[32] = read-out: Calu-3 CoV-2 Sinf Average
[33] = Severe acute respiratory syndrome coronavirus 2, Calu-3, reconfirmed hits, read-out: Calu-3 SARS-CoV-2 EC50
[34] = Calu-3, read-out: Calu-3 cell count EC50 GeoMean
[35] = curve-fit effect at infinite concentration, average

Molecule: CN(C)C(C(=O)Nc1ccc2c(=O)[nH]ccc2c1)c1ccsc1 (stereo not shown) [Verosudil]
- EC50 ([1]; HeLa-ACE2, read-out: HeLa-ACE2 cell count EC50 GeoMean (µM), geometric mean of replicates): > 9.59 µM
- CC50 at 48 h ([2]; Calu-3 uninfected cytotoxicity CC50 GeoMean (µM)): > 18.9 µM
- uninfected Calu-3 CC50 [μM] [3]: > 18.887 ×÷ 2.21 (n=3) μM
- Calu-3 uninfected cytotoxicity Sinf Average (%) ([3]; human, 48 h): 80%
- EC50 ([4]; Severe acute respiratory syndrome coronavirus 2, HeLa-ACE2, geometric mean of replicates, read-out: HeLa-ACE2 CoV-2 EC50 GeoMean): > 9.59 µM
- CC50 at 24 h ([5]; geometric mean of replicates, read-out: HeLa-ACE2 uninfected cytotoxicity CC50 GeoMean): > 39.8 µM
- HeLa-ACE2 uninfected cytotoxicity Sinf Average (%) ([6]; Sinf average of the curves): -100%
- Emax ([7]; Sinf average of the curves, read-out: Calu-3 CoV-2 Sinf Average (%)): 93%
- EC50 ([7]; Severe acute respiratory syndrome coronavirus 2, Calu-3, geometric mean of replicates, read-out: Calu-3 CoV-2 EC50 GeoMean): > 3.51 µM
- HeLa-ACE2 cell count Sinf Average (%) [8]: -100%
- Emax ([9]; read-out: Calu-3 cell count Sinf Average (%)): 79%
- EC50 ([9]; Calu-3, read-out: Calu-3 cell count EC50 GeoMean (µM), geometric mean of replicates): 0.561 µM

Molecule: Cc1cccc(/C=N/Nc2cc(N3CCOCC3)nc(OCCc3ccccn3)n2)c1 [Apilimod - control]
- EC50 [10]: > 2.4 µM
- Emax [4, 24]: 95%
- EC50 ([4]; read-out: HeLa-ACE2 CoV-2 EC50 GeoMean): 0.011 µM
- HeLa-ACE2 uninfected cytotoxicity Sinf Average [6, 24]: -100%
- CC50 [6]: > 11.5 µM
- EC50 ([7]; read-out: Calu-3 CoV-2 EC50 GeoMean): 1.87 µM
- HEK293T 72-hour cytotoxicty Sinf Average [11]: -79%
- HeLa-ACE2 synergy score with remdesivi [δ] ([12]; combination with remdesivir, synergy score δ): 3.568
- EC50 [13]: > 2.5 µM
- HepG2 72-hour cytotoxicity Sinf Average [14]: -69%
- EC50 [15]: > 2.4 µM

Molecule: CCCCN(CCCC)CCC(O)c1cc2c(Cl)cc(Cl)cc2c2cc(C(F)(F)F)ccc12 (stereo not shown) [Halofantrine HCl]
- Emax [1]: -39%
- EC50 [1, 25]: > 6.19 µM
- TOA:HeLa-ACE2 EC50 Ratio [10]: 3.833
- Emax [10]: 100%
- EC50 [10, 26]: 4.44 µM
- CC50 at 48 h ([16]; Calu-3 Uninf. cells CC50 (µM), reconfirmed hits): > 22.6 µM
- CC50 at 48 h ([16]; Calu-3 uninfected cytotoxicity CC50 GeoMean): > 22.6 µM
- Calu-3 uninfected cytotoxicity Sinf Average ([17]; human, uninfected Calu-3 cells, 48 h): -100%
- Emax [4]: 100%
- EC50 [4, 27]: 1.16 µM
- EC50 [4, 28]: 0.33 µM
- HeLa-ACE2 SI [4]: > 20.66
- CC50 at 24 h [5, 29]: 18.7 µM
- CC50 at 24 h [5, 30]: > 23.9 µM
- HeLa-ACE2 uninfected cytotoxicity Sinf Average [6, 31]: -100%
- CC50 at 72 h [18]: 25.8 µM
- HEK293T 72-hour cytotoxicty Sinf Average [19]: -100%
- Emax [7, 32]: 100%
- EC50 [7, 33]: > 8.47 µM
- Calu-3 SI [7]: > 2.67
- CC50 at 72 h [20]: 30.5 µM
- HepG2 72-hour cytotoxicity Sinf Average [21]: -100%
- Synergy score with remdesivir (δ) [12]: −3.51
- HeLa-ACE2 synergy score with remdesivi ([12]; combination with remdesivir): -3.509 δ
- EC50 [9, 34]: > 9.98 µM
- Approx. t1/2 ([22]; human, ref [33]-[49]): 58 h
- Cmax ([22]; read-out: Approx. Cmax, human oral, ref [33]-[49]): 1 µM
- EC50 [23]: > 9.61 µM

Molecule: Deazaneplanocin A
- Calu-3 uninfected cytotoxicity Sinf Average [17, 35]: -70%
- CC50 ([17]; read-out: Calu-3 uninfected cytotoxicity CC50 GeoMean, unrounded geometric mean): > 10.3 µM
- HeLa-ACE2 CoV-2 Sinf Average [4, 35]: -100%
- EC50 ([4]; unrounded geometric mean, read-out: HeLa-ACE2 CoV-2 EC50 GeoMean): > 9.59 µM
- HeLa-ACE2 uninfected cytotoxicity Sinf Average [6, 35]: -79%
- CC50 ([6]; unrounded geometric mean): > 7.95 µM
- Calu-3 CoV-2 Sinf Average [7, 35]: -85%
- EC50 ([7]; unrounded geometric mean, read-out: Calu-3 CoV-2 EC50 GeoMean): 0.0568 µM
- Calu-3 cell count Sinf Average [13, 35]: 62%
- EC50 ([13]; unrounded geometric mean): 0.108 µM

Molecule: COc1ccc2c(O[C@@H]3C[C@H]4C(=O)N[C@]5(C(=O)NS(=O)(=O)C6CC6)C[C@H]5/C=C\CCCCN(C)C(=O)[C@@H]4C3)cc(-c3nc(C(C)C)cs3)nc2c1C [Simeprevir]
- Emax [1]: 100%
- EC50 [1, 25]: > 9.47 µM
- CC50 at 48 h ([2]; Calu-3 Uninf. cells CC50 (µM)): > 22.4 µM
- Emax [10]: 100%
- EC50 [10, 26]: > 8.62 µM
- uninfected Calu-3 CC50 [3]: > 22.39 ×÷ 1.591 (n=6) μM
- Calu-3 uninfected cytotoxicity Sinf Average ([3]; human, 48 h): -100%
- Emax [4]: 100%
- EC50 [4, 27]: > 7.88 µM
- EC50 [4, 28]: 7.88 µM
- HeLa-ACE2 SI [4]: > 2.81
- CC50 at 24 h [5, 29]: > 22.2 µM
- CC50 at 24 h [5, 30]: > 22.2 µM
- HeLa-ACE2 uninfected cytotoxicity Sinf Average [6, 31]: -100%
- Emax [7, 32]: 100%
- EC50 ([7]; Severe acute respiratory syndrome coronavirus 2, Calu-3, detail column, read-out: Calu-3 CoV-2 EC50 GeoMean): > 7.7 µM
- EC50 [7, 33]: 7.7 µM
- Calu-3 SI [7]: > 2.91
- HEK293T 72-hour cytotoxicty Sinf Average [11]: -102%
- Synergy score with remdesivir (δ) [12]: −0.67
- HeLa-ACE2 synergy score with remdesivi ([12]; combination with remdesivir): -0.667 δ
- Emax ([9]; read-out: Calu-3 cell count Sinf Average): 100%
- EC50 [9, 34]: > 9.6 µM
- HepG2 72-hour cytotoxicity Sinf Average [14]: -100%
- Cmax ([22]; human, in vivo, po): 32 µM
- Approx. t1/2 ([22]; human, ref [33]-[49]): 16 h
- EC50 [23]: > 9.59 µM
